According to patent publication US20090176772A1, “METHOD OF REVERSING LEFT VENTRICULAR REMODELING” (priority 2004, published 2009):

Columns and labels:
[1] = system: dogs with chronic heart failure produced by multiple sequential intracoronary microembolizations; assay: Ventriculographic measurements (LV volumes, ejection fraction) in dogs with chronic heart failure; type: in vivo, dog
From the text: (§1) The following example examines the effects of ranolazine alone and in combination with an angiotensin converting enzyme (ACE) inhibitor and in combination with a beta-blocker on the progression of left ventricular (LV) dysfunction and LV chamber remodeling in dogs with chronic heart failure produced by multiple sequential intracoronary microembolizations.
(§2) Chronic LV dysfunction and failure in dogs was produced by multiple sequential intracoronary embolizations with polystyrene Latex microspheres (77-109 μm in diameter) as previously described by Sabbah et al. (1991) Am. J. Physiol. 260:H1379-H1384. Coronary microembolizations were performed during cardiac catheterization under general anesthesia and sterile conditions. Anesthesia was induced using a combination of intravenous injections of hydromorphone (0.22 mg/kg), diazepam (0.2-0.6 mg/kg) and sodium pentobarbital 50-100 mg to effect. Plane of anesthesia was maintained throughout the study using 1% to 2% isoflurane. Left and right heart catheterization was performed via a femoral arteriotomy and venotomy. After each catheterization, the vessels were repaired using 6-0 silk and the skin closed with 4-0 suture. Microembolizations were discontinued when LV ejection fraction, determined angiographically, was between 30% and 40%. A period of 2 weeks was allowed after the last embolization to ensure that infarctions produced by the last microembolizations have completely healed and heart failure was established. The study protocol was then performed.
(§3) Healthy, conditioned, purpose-bred mongrel dogs weighing between 19 and 25 kg.
(§4) A randomized, blinded, placebo controlled study design was used. A total of 28 dogs underwent multiple sequential intracoronary microembolizations as described above to produce chronic heart failure. Two weeks after the last embolization, dogs were randomized into 4 study groups (treatment arms). Dogs were randomized to 3 months oral therapy with ranolazine alone (375 mg, bid, n=7), ranolazine (375 mg bid) in combination with metoprolol tartrate (25 mg bid, n=7), ranolazine (375 mg bid) in combination with enalapril (10 mg bid, n=7), or placebo (ranolazine vehicle bid, n=7). Hemodynamic, angiographic, echocardiographic, Doppler and neurohumoral measurements were made prior to randomization (2 weeks after the last embolization) and after completion of therapy (3 months after initiating therapy). After completing the final hemodynamic and angiographic study, dogs were euthanized and the hearts removed and tissue prepared and saved for future histological and biochemical evaluations. The study primary and secondary end-points were as follows:
Left ventriculograms were performed during cardiac catheterization after completion of the hemodynamic measurements. Ventriculograms were performed with the dog placed on its right side and were recorded on 35 mm cine at 30 frames per second during a power injection of 20 ml of contrast material (RENO-M-60, Squibb Diagnostics). Correction for image magnification was made using a radiopaque grid placed at the level of the LV. LV end-systolic and end-diastolic volumes were calculated from angiographic silhouettes using the area length method (4). Premature beats and postextrasystolic beats were excluded from any analysis. LV ejection fraction was calculated as the ratio of the difference of end-diastolic and end-systolic volumes to end-diastolic volume times 100. Stroke volume was calculated as the difference between LV end-diastolic and end-systolic volumes. Cardiac output was calculated as the stroke volume times heart rate and cardiac index as the cardiac output divided by body surface area.
To ensure that all study measures were similar at baseline, comparisons were made between all 4 study groups before any embolizations and at the time of randomization before initiation of therapy. For these comparisons, a one way analysis of variance (ANOVA) was used with a set at 0.05. […]

[2] = system: dogs with chronic heart failure produced by multiple sequential intracoronary microembolizations; assay: Echocardiographic and Doppler measurements in dogs with chronic heart failure; type: in vivo, dog; conditions: mean±SEM
From the text: as §1, §2, §3, §4
Echocardiographic and Doppler studies were performed in all dogs at all specified study time points using a 77030A ultrasound system (Hewlett-Packard) with a 3.5 MHZ transducer. All echocardiographic measurements were made with the dog placed in the right lateral decubitus position and recorded on a Panasonic 6300 VHS recorder for subsequent off-line analysis. Transverse 2-dimensional echocardiograms were obtained at the level of the LV papillary muscle and were used to calculate LV fractional area of shortening. The latter was calculated as the end-diastolic LV cavity area minus the end-systolic cavity area divided by the end-diastolic cavity area times 100. Two chamber view 2-dimensional echocardiograms were also obtained to ascertain LV major and minor semiaxes to be used for calculation of LV end-diastolic circumferential wall stress. Wall stress was calculated as follows: Stress=Pb/h(1−h/2b)(1−hb/2a2), where P is LV end-diastolic pressure, a is LV major semiaxis, b is LV minor semiaxis, and h is LV wall thickness.
Mitral inflow velocity was measured by pulsed-wave Doppler echocardiography. The velocity waveforms were used to calculate peak mitral flow velocity in early diastole (PE), peak mitral inflow velocity during LA contraction (PA), the ratio of PE to PA and early mitral inflow deceleration time. […]

[3] = POST: after 3 months of oral therapy bid, mean±SEM
[4] = PRE: at time of randomization, before therapy, mean±SEM
[5] = at the end of 3 months of treatment
[6] = change from pre-treatment to post-treatment (3 months), mean±SEM
[7] = POST: after 3 months of oral therapy bid
[8] = PRE: at time of randomization, before therapy
[9] = change from pre-treatment to post-treatment (3 months)

## COc1ccccc1OCC(O)CN1CCN(CC(=O)Nc2c(C)cccc2C)CC1 (racemic) [RAN Alone, (±)-N-(2,6-dimethylphenyl)-4-[2-hydroxy-3-(2-methoxyphenoxy)-propyl]-1-piperazineacetamide]
[1]; [3]
  CI = cardiac index: 2.3 ± 0.2 L/min/m^2
  CO = cardiac output: 1.91 ± .18 L/min
  EDV = LV end-diastolic volume: 65 ± 2 mL
  EF = LV ejection fraction: 37 ± 2 %
  ESV = LV end-systolic volume: 41 ± 2 mL
  SV = stroke volume: 24 ± 1 mL
[1]; [4]
  CI = cardiac index: 2.0 ± 0.2 L/min/m^2
  CO = cardiac output: 1.67 ± .11 L/min
  EDV = LV end-diastolic volume: 63 ± 3 mL
  EF = LV ejection fraction: 35 ± 1%
  ESV = LV end-systolic volume: 41 ± 2 mL
  SV = stroke volume: 22 ± 1 mL
[1]; [5]
  LV ejection fraction, intra-group comparison pre- vs post-treatment: increased significantly
  LV end-diastolic volume, intra-group comparison pre- vs post-treatment: remained unchanged
  LV end-systolic volume, intra-group comparison pre- vs post-treatment: remained unchanged
[1]; [6]
  Δ CI (cardiac index): 0.3 ± 0.1 L/min/m^2
  Δ CO (cardiac output): 0.24 ± .10 L/min
  Δ EDV (LV end-diastolic volume): 2 ± 1 mL
  Δ EF (LV ejection fraction): 2 ± 1 %
  Δ ESV (LV end-systolic volume): 0 ± 1 mL
  Δ SV (stroke volume): 2 ± 1 mL
[1]; data of Example 1
  Ability to reduce LV end-diastolic volume (FIG. 1): neither ranolazine, enalapril, nor metoprolol were independently able to reduce LV end-diastolic volume
  Ability to reduce LV end-systolic volume (FIG. 2): neither ranolazine, enalapril, nor metoprolol appear to independently reduce LV end-systolic volume
[2]; [7]
  DT = deceleration time: 87 ± 4 ms
  EDWS = LV end-diastolic circumferential wall stress: 42 ± 4 gm-cm^2
  FAS = LV fractional area of shortening: 29 ± 2%
  MR = severity of mitral regurgitation: 10.1 ± 1.3%
  PE/PA (mitral inflow velocity ratio): 2.8 ± 0.3
[2]; [8]
  DT = deceleration time: 88 ± 3 ms
  EDWS = LV end-diastolic circumferential wall stress: 56 ± 5 gm-cm^2
  FAS = LV fractional area of shortening: 28 ± 1%
  MR = severity of mitral regurgitation: 11.3 ± 1.9%
  PE/PA (mitral inflow velocity ratio): 2.7 ± 0.3
[2]; [9]
  Δ DT (deceleration time): -1 ± 4 ms
  Δ EDWS (LV end-diastolic circumferential wall stress): −14.5 ± 5.2 gm-cm^2
  Δ FAS (LV fractional area of shortening): 1 ± 1 %
  Δ MR (severity of mitral regurgitation): −1.2 ± 1.1%
  Δ PE/PA: 0.0 ± 0.4
